We go through 36 compounds from patent publication US20050209278A1, “Piperidinyl- and piperazinyl-sulfonylmethyl hydroxamic acids and their use as protease inhibitors” (priority 2002, published 2005).

One assay concerns the target T1, MMP-9 (Homo sapiens, UniProt P14780).
T1 construct: made in house; host or cells: MMP-9-transfected HT1080 cells (spent media)
Put plainly: In vitro MMP inhibition, Ki determination (fluorogenic substrate II). The format is biochemical. The settings on record: value not in parenthesis. The method, then: Several hydroxamic acids and salts thereof were analyzed in in vitro assays to determine their ability to inhibit the MMP cleavage of peptide substrates. […] and IC50 constants were calculated from the assayed hydroxamic acid-MMP interactions.
Human recombinant MMP-1, MMP-2, MMP-9, MMP-13, and MMP-14 were used in this assay. All enzymes were prepared in Assignee's laboratories following usual laboratory procedures. Protocols for the preparation and use of these enzymes are available in the scientific literature. See, e.g., Enzyme Nomenclature (Academic Press, San Diego, Calif., 1992) (and the citations therein). See also, Freije et al., “Molecular cloning and expression of collagenase-3, a novel human matrix metalloproteinase produced by breast carcinomas,” J Biol. Chem., 269(24), 16766-16773 (1994).
The MMP-9 proenzyme was purified by gelatin Sepharose chromatography from spent media of MMP-9-transfected HT1080 cells provided by Dr. Howard Welgus of Washington University (St. Louis, Mo.).
All MMPs were activated using 4-aminophenylmercuric acetate (“APMA”, Sigma Chemical, St. Louis, Mo.) or trypsin. MMP-9 also was activated using human recombinant MMP-3 (purified in Assignee's laboratory following standard cloning and purification techniques).
Two fluorogenic, methoxycoumarin-containing polypeptide substrates were used in the MMP inhibition assays: [drawing 427] Here, “Dpa” is 3-(2,4-dinitrophenyl)-L-2,3-diaminopropionyl group, and “MCA” is 7-methoxycoumarin-4-yl acetyl. Substrate (I) was purchased from Baychem (Redwood City, Calif.), and substrate II was prepared Assignee's laboratory. Substrate I was used in the IC50 determination assays, while substrate II was used in the Ki determination assays. In the absence of MMP inhibitory activity, either substrate is cleaved at the Gly-Leu peptide bond. This cleavage separates the highly fluorogenic peptide from the 2,4-dinitrophenyl quencher, thus resulting in increase of fluorescent intensity.
The stock solutions of the assayed hydroxamic acids (or salts thereof) were prepared in 1% dimethyl sulfoxide (DMSO). These stock solutions were diluted in Buffer A (100 mM Tris-HCl, 100 mM NaCl, 10 mM CaCl2, 0.05% polyoxyethylene 23 lauryl ether, pH 7.5) to obtain solutions with different hydroxamic acid concentrations, i.e., assay solutions with different concentrations of the assayed MMP inhibitory compound. The experiment controls contained the same amount of Buffer A/DMSO as the assayed sample, but contained no hydroxamic acid (or salt thereof).
The assays from which the Ki determinations were made were performed as follows. The assayed hydroxamic acid samples were incubated in separate wells of untreated white polystyrene plates (Nunc Nalgene International, Rochester, N.Y.), and analyzed on a Tecan SpectraFlour Plus plate reader. The excitation wavelength was 330 nm, and the emission wavelength—420 nm. All samples (assayed hydroxamic acids and controls) were incubated in separate plate wells at room temperature for 1 hr in the presence of 4 μM of MMP substrate (II). In the absence of MMP inhibitory activity, substrate II was cleaved at the Gly-Leu bond resulting in an increase of relative fluorescence. Inhibition was observed as a reduced rate of this increase in relative fluorescence. The various hydroxamic acids were analyzed using a single low enzyme concentration with a single substrate concentration fixed at or below the Km. This protocol is a modification of method by Knight et al., FEBS Lett., 296(3), 263-266 (1992). Apparent inhibitory constants were determined by non-linear regression of reaction velocity as a function of inhibitor and enzyme concentration using Morrison's equation, as described by Kuzmic, Anal. Biochem. 286, 45-50 (2000). Modifications were made in the non-linear regression method to allow a common control reaction rate and effective enzyme concentration to be shared between all dose-response relationships on a given assay plate. […]

The target of another assay is T2, MMP-2 (Homo sapiens, UniProt P08253).
T2 construct: made in house; host or cells: MMP-2-transfected p2AHT2 cells
T2 sequence (P08253 110-660): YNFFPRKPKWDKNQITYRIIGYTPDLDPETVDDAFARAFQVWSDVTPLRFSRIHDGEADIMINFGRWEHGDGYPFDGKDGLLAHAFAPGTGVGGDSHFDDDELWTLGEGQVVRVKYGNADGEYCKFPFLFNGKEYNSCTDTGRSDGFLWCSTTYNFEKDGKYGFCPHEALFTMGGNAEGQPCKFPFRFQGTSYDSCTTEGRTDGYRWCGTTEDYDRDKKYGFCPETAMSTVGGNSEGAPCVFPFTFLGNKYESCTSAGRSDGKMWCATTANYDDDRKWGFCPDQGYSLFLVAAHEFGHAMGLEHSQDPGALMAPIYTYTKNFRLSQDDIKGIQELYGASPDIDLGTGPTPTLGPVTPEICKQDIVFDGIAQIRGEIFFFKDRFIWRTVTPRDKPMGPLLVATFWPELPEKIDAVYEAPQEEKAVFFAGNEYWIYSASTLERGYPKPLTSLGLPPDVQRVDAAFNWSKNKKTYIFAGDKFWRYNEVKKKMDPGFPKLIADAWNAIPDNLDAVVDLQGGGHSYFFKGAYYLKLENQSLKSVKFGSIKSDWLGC
The description is as above. The format is biochemical. As to conditions: value not in parenthesis; read-out: MMP-2 Ki.

What is called Ki is a measure of affinity in units of concentration, obtained from inhibition or displacement.

The structures appear in SMILES notation.

T1 sequence (P14780 107-707 limits assumed): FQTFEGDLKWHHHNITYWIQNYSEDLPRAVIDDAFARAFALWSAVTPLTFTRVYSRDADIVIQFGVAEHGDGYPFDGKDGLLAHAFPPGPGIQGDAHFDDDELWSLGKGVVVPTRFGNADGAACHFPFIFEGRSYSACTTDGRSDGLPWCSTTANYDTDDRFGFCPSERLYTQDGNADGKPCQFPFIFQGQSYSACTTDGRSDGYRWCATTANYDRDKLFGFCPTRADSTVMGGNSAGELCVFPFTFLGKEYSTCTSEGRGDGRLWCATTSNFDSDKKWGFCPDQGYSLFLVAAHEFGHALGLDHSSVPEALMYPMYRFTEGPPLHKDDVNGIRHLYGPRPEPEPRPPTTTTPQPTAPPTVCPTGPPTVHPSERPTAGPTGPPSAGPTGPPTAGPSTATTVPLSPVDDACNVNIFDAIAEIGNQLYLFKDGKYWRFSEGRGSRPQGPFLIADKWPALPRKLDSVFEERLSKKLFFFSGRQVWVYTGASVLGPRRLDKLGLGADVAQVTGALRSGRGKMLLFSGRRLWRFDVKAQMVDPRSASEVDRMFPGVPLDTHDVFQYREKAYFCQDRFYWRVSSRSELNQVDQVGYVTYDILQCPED

Turning to `O=C(NO)C1(S(=O)(=O)N2CCN(c3ncccn3)CC2)CCOCC1` [Example 106], the Ki came to 235 nM on MMP-9 and 134 nM on MMP-2.
With `O=C(NO)C1(S(=O)(=O)N2CCN(c3ncccn3)CC2)CCOCC1` [Example 107], the Ki on MMP-9 was determined as 153 nM; at MMP-2 it was 115 nM.
As for `COc1ccc(N2CCN(S(=O)(=O)C3(C(=O)NO)CCOCC3)CC2)nc1` [Example 108], the inhibition constant Ki at MMP-9 amounted to 401 nM; at MMP-2, 431 nM.
`COc1ccc(N2CCN(S(=O)(=O)C3(C(=O)NO)CCOCC3)CC2)nc1` [Example 109]: the Ki on MMP-9 came out at 447 nM; on MMP-2, 477 nM.
As for `CCCCCCCCCc1cnc(N2CCN(S(=O)(=O)C3(C(=O)NO)CCOCC3)CC2)nc1` [Example 110], the Ki was 40.6 nM on MMP-9 and 61.7 nM at MMP-2.
In the case of `CCCCCCCCCc1cnc(N2CCN(S(=O)(=O)C3(C(=O)NO)CCOCC3)CC2)nc1` [Example 111], the Ki at MMP-9 stood at 30.6 nM; on MMP-2, 49.6 nM.
In the case of `O=C(NO)C1(S(=O)(=O)N2CCN(c3ccc(OCCCC(F)(F)F)cc3)CC2)CCN(c2cnccn2)CC1` [Example 112], the Ki was 15.4 nM at MMP-9 and 0.69 nM at MMP-2.
`CCCCOc1ccc(N2CCN(S(=O)(=O)C3(C(=O)NO)CCN(C(=O)OCCF)CC3)CC2)cc1` [Example 113]: the inhibition constant (Ki) at MMP-9 was 1.01 nM; on MMP-2, 0.4 nM.
As to `CCc1ccc(N2CCN(S(=O)(=O)C3(C(=O)NO)CCOCC3)CC2)nc1` [Example 114], the values for the Ki on MMP-9 and on MMP-2 were 2.64 nM and 0.367 nM, respectively.
Turning to `CCCCOc1ccc(N2CCN(S(=O)(=O)C3(C(=O)NO)CCN(C(=O)OCC(F)(F)F)CC3)CC2)cc1` [Example 115], the Ki on MMP-9 turned out to be 4.97 nM; at MMP-2, 1.48 nM.
The like results for `CC(C)(C)N1CCC(C(=O)NO)(S(=O)(=O)N2CCN(c3ccc(OCCCC(F)(F)F)cc3F)CC2)CC1` [Example 116] were, in that order, 49.5 nM and 4.31 nM.
As for `O=C(NO)C1(S(=O)(=O)N2CCN(c3ccc(OCCCC(F)(F)F)cc3F)CC2)CCOCC1` [Example 117], the Ki at MMP-9 was determined as 27.7 nM; at MMP-2, 2.58 nM.
For `CCCCOc1ccc(N2CCN(S(=O)(=O)C3(C(=O)NO)CCN(C(=O)NCCOC)CC3)CC2)cc1` [Example 118], the figures for the Ki at MMP-9 and at MMP-2 were 1.5 nM and 0.75 nM, respectively.
The like results for `COCCN1CCC(C(=O)NO)(S(=O)(=O)N2CCN(c3ccc(OCC(F)(F)F)cc3)CC2)CC1` [Example 119] were, in that order, 1.35 nM and 1.19 nM.
The like results for `CCCCOc1ccc(N2CCN(S(=O)(=O)C3(C(=O)NO)CCN(c4ccc(O)cc4)CC3)CC2)cc1` [Example 121] were, in that order, 3.6 nM and 2.15 nM.
The like results for `O=C(c1cccnc1)N1CCC(C(=O)NO)(S(=O)(=O)N2CCN(c3ccc(OCCCC(F)(F)F)cc3)CC2)CC1` [Example 122] were, in that order, 0.01 nM and 0.34 nM.
On to `CCCCOc1ccc(N2CCN(S(=O)(=O)C3(C(=O)NO)CCN(C(=S)N(C)C)CC3)CC2)cc1` [Example 123], for which the Ki at MMP-9 was found to be 2.72 nM; at MMP-2, 1.28 nM.
On to `CCCCOc1ccc(N2CCN(S(=O)(=O)C3(C(=O)NO)CCN(C(=O)N4CCOCC4)CC3)CC2)cc1` [Example 124], for which the Ki on MMP-9 was 0.429 nM; on MMP-2 it was 0.193 nM.
Consider `CCCCOc1ccc(N2CCN(S(=O)(=O)C3(C(=O)NO)CCN(c4ccc(C)cn4)CC3)CC2)cc1` [Example 125], for which the results for the Ki on MMP-9 and at MMP-2 were 7.2 nM and 1.8 nM, respectively.
Take `CCCCOc1ccc(N2CCN(S(=O)(=O)C3(C(=O)NO)CCN4CCCC4C3)CC2)cc1F` (stereo not drawn) [Example 126]: the Ki came to 19 nM at MMP-9 and 8.24 nM on MMP-2.
On to `CCCCOc1ccc(N2CCN(S(=O)(=O)C3(C(=O)NO)CCN(C(=O)c4cc5ccccc5o4)CC3)CC2)cc1` [Example 127], for which the inhibition constant Ki on MMP-9 is 24 nM; at MMP-2, 6.02 nM.
Take `CC(C)CCOc1ccc(N2CCN(S(=O)(=O)C3(C(=O)NO)CCN(C4CC4)CC3)CC2)cc1` [Example 128]: the Ki on MMP-9 was 1.92 nM; on MMP-2, 0.785 nM.
As to `CCCCOc1ccc(N2CCN(S(=O)(=O)C3(C(=O)NO)CCN(c4ccc(OCCOC)nn4)CC3)CC2)cc1` [Example 129], the inhibitory constant (Ki) came to 1.2 nM at MMP-9 and 0.508 nM on MMP-2.
On to `CCCCOc1ccc(N2CCN(S(=O)(=O)C3(C(=O)NO)CCN(c4nccc(C(F)(F)F)n4)CC3)CC2)cc1` [Example 130], for which the values for the Ki at MMP-9 and at MMP-2 were 23.2 nM and 5.23 nM, respectively.
Taken in the same sequence, the figures for `CCCCOc1ccc(N2CCN(S(=O)(=O)C3(C(=O)NO)CCN(c4ccc(C)nc4)CC3)CC2)cc1` [Example 131] were 3.03 nM and 1.39 nM.
In the case of `O=C1c2ccccc2C(=O)N1CCCCc1ccc(N2CCN(S(=O)(=O)C3(C(=O)NO)CCOCC3)CC2)nc1` [Example 132], the values for the Ki at MMP-9 and at MMP-2 were 28.3 nM and 1.2 nM, respectively.
Take `CC(C)CCc1ccc(N2CCN(S(=O)(=O)C3(C(=O)NO)CCOCC3)CC2)nc1` [Example 133]: the Ki on MMP-9 turned out to be 0.52 nM; at MMP-2 it was 0.251 nM.
For the compound `CCCc1ccc(N2CCN(S(=O)(=O)C3(C(=O)NO)CCOCC3)CC2)nc1` [Example 136], the inhibitory constant (Ki) is 0.196 nM at MMP-9 and 0.142 nM at MMP-2.
For the compound `Cc1ccc(N2CCN(S(=O)(=O)C3(C(=O)NO)CCOCC3)CC2)nc1` [Example 138], the figures for the Ki at MMP-9 and at MMP-2 were 5.09 nM and 0.469 nM, respectively.
Taken in the same sequence, the figures for `CCCCOc1ccc(N2CCN(S(=O)(=O)C3(C(=O)NO)CCN(c4cc(C)ccn4)CC3)CC2)cc1` [Example 139] were 7.45 nM and 2.18 nM.
`CCCCOc1ccc(N2CCN(S(=O)(=O)C3(C(=O)NO)CCN(c4cnccn4)CC3)CC2)cc1` [Example 140]: the Ki on MMP-9 came out at 1.76 nM; on MMP-2, 0.672 nM.
`CCCCOc1ccc(N2CCN(S(=O)(=O)C3(C(=O)NO)CCN(C(=O)OCCOC)CC3)CC2)cc1` [Example 141]: the inhibition constant Ki on MMP-9 amounted to 5.33 nM; on MMP-2 it was 0.266 nM.
Taken in the same sequence, the figures for `CCCCOc1ccc(N2CCN(S(=O)(=O)C3(C(=O)NO)CCN(c4ccc(OC)nc4)CC3)CC2)cc1` [Example 142] were 2.15 nM and 0.978 nM.
As for `CCCCOc1ccc(N2CCN(S(=O)(=O)C3(C(=O)NO)CCN(C(=O)c4cc5ccccc5s4)CC3)CC2)cc1` [Example 143], the Ki at MMP-9 was determined as 29 nM; on MMP-2 it was 8.97 nM.
With `COCCN1CCC(C(=O)NO)(S(=O)(=O)N2CCN(c3ccc(OCC(F)(F)C(F)(F)F)cc3)CC2)CC1` [Example 144], the results for the Ki on MMP-9 and on MMP-2 were 2.31 nM and 0.69 nM, respectively.
For `CCCCOc1ccc(N2CCN(S(=O)(=O)C3(C(=O)NO)CCOCC3)CC2)cc1` [Example 145], the values for the Ki on MMP-9 and at MMP-2 were 1.18 nM and 0.695 nM, respectively.
